In patent publication US20260112450A1, “METHODS FOR SELECTION OF CANCER PATIENTS FOR ANTI-ANGIOGENIC AND IMMUNE CHECKPOINT BLOCKAGE THERAPIES AND COMBINATIONS THEREOF” (Washington University, priority 2022, published 2026):
Several values for one entry are separate records, joined by “and”; a condition that tells them apart may be missing. Equal values may be shown once.

How the values were obtained:
[1] = tested on: clear cell renal carcinoma; assay: Braun dataset (Checkmate 025 and Checkmate 010): overall survival, re-evaluated by angio-immune subtype; assay type: in vivo, human; settings: for differences in median OS between angio-immune molecular subtypes: comparison of C1, C2 and C3 within one treatment arm
Description: (§1) Immunotherapy datasets: Pre-treatment TPM normalized RNA sequencing data from anti-PD1/L1 and anti-CTLA4 treated cohorts were downloaded for the studies as described in Table 1. Studies were selected based on the following criteria: >20 samples for enrichment calculation, RNA sequencing of pre-treatment biopsies, and only anti-PD1/PDL1 treated patients. Gene signature enrichment and molecular subtypes were derived as described elsewhere in the manuscript. Survival and response rates to treatment when available were compared among angio-immune clusters.
(§2) Quantification and Statistical Analysis: Unless indicated elsewhere, all visualizations were completed in GraphPad Prism 9. GraphPad Prism 9 was used for all statistical analysis. Data is presented as mean±standard error of mean. One way ANOVA was used for comparison across more than two groups. Non-parametric tests were used when data was not normally distributed. Log rank tests were used for all survival analysis. Alpha value of 0.05 was used throughout the study.
(§3) The approval of the combination of avelumab, an anti-PDL1, and axitinib, a small molecule tyrosine kinase inhibitor, for the first-line treatment of metastatic renal cancer was provided in 2020. […] Next, it was sought to ascertain if stratification by angio-immune subtypes can confer more significant differences in responses and survival.
(§4) The enrichment of the 91 angio-immune signatures was scored using RNA sequencing data from pre-treatment biopsies.
Survival was tracked across clusters to identify if angio-immune molecular subtypes can inform treatment choice in this setting. […] To determine if patients belonging to C1, C2, and C3 derive clinical benefit from Nivolumab over everolimus, OS was tracked among angio-immune molecular subtypes across treatment arms.

metastatic renal cancer = assay: Javelin Renal 101 clinical trial: progression free survival, re-evaluated by angio-immune subtype; assay type: in vivo, human
Description: as §1, §2, §3, §4
Survival was tracked across clusters to identify if angio-immune molecular subtypes can inform treatment choice in this setting.

[2] = all patients with pre-treatment RNA sequencing data, Braun dataset
[3] = patients in angio-immune subtype C1, Braun dataset
[4] = patients in angio-immune subtype C2, Braun dataset
[5] = patients in angio-immune subtype C3, Braun dataset

Molecule | median OS [1, 2] [months] | differences in median OS between angio-immune molecular subtypes [1] | median OS [1, 3] [months] | median OS [1, 4] | median OS [1, 5] | clinical benefit (OS) compared to everolimus ([1]; patients in C1, p=0.6347) | clinical benefit (OS) compared to everolimus ([1]; patients in C2, p=0.0581) | median OS compared to the everolimus arm ([1]; patients in C3, p<0.0043) | median PFS (metastatic renal cancer; all patients with pre-treatment RNA sequencing data, Javelin Renal 101 dataset) [months] | median PFS (metastatic renal cancer; patients in angio-immune subtype C1, Javelin Renal 101 dataset) [months] | median PFS (metastatic renal cancer; patients in angio-immune subtype C2, Javelin Renal 101 dataset) [months] | median PFS (metastatic renal cancer; patients in angio-immune subtype C3, Javelin Renal 101 dataset) [months]
CO[C@H]1C[C@@H]2CC[C@@H](C)[C@@](O)(O2)C(=O)C(=O)N2CCCC[C@H]2C(=O)O[C@H]([C@H](C)C[C@@H]2CC[C@@H](OCCO)[C@H](OC)C2)CC(=O)[C@H](C)/C=C(\C)[C@@H](O)[C@@H](OC)C(=O)[C@H](C)C[C@H](C)/C=C/C=C/C=C/1C [everolimus] | 19.7454 | no significant differences | 24.6735 | 21.13 months | 13.27 months |  |  |  |  |  |  | 
Nivolumab: an anti-PD1 therapy | 25.9877 | significant improvement in median OS | 16.9528 | 36.961 months and 36.96 months | 29.8645 months and 29.86 months | no clinical benefit | no statistically significant clinical benefit | significantly improved |  |  |  | 
CCN(CC)CCNC(=O)c1c(C)[nH]c(/C=C2\C(=O)Nc3ccc(F)cc32)c1C [sunitinib] |  |  |  |  |  |  |  |  | 8.4 | 9.7 | 8.3 | 8.2
